Where two headings read alike, the source gives them in different places.

The subject of this data set is lettuce. Type of data set: in vivo, Lactuca vulgaris. To be noted: arsenic in water 0 to 100 ppm. The source says:
The arbuscular mycorrhizal spore germination and growth assay (a) consists of a glass slide (22) with a strip of blotter paper (25) of the same width as the glass slide overlain upon it. A semi-circle of gridded, nitrocellulose filter paper is laid on top of the blooter paper. Fungal spores are then placed into one or more segments of the grid, and then covered with a cover slip (not shown). The entire assembly is then held together using non-toxic retainer rings, or alternatively glued together with a non-toxic glue. When the glass slide assay is placed into the slider cartridge (21, FIG. 5) and then into the device of current invention, and deployed in the field and exposed to moisture, the spores produce hyphae, which can be quantitatively observed using optical microscope. The degree of branching of hyphae can be used as outcome of the assay and correlated with contaminants present in the soil and/or water. The small seed germination assay (b) (FIG. 6) also contains a glass slide with two layers of fitted blotter paper strips (25): first layer of fitied blotter paper is the strip without holes, and a second blotter paper strip which has holes of about 2-3 mm in diameter as shown in FIG. 6. Plant seeds (26) are placed in one or more holes, and the assembly is then covered with a standard laboratory cover slip and held together by a non-toxic retaining ring or a glue. […]

With `[AsH3]` [arsenic], the “root growth response to arsenic exposure” value by setting is: (horizontally grown seedlings) “not evident”; (vertically oriented seedlings) “hermetic response (enhanced growth at low concentrations of a toxicant)”.
